Experimental data taken from patent US20230210116A1, “HONEYBEE REPELLENT” (EARTH CORPORATION, priority 2020, published 2023).
Counter-ions that a name gives are not always drawn.

Assays:
stink bugs = assay: Test for Confirmation of Stink Bug Behaviors against Active Ingredients 1, 2, 3 (treated filter paper); format: in vivo, southern green stink bugs
Description: The test samples in “Test for Confirmation of Honeybee Repelling Effect 1” above were used.
A liquid calcium carbonate/ethanol dispersion was applied on the entire interior wall of a KP cup (100 mm in diameter×90 mm in height) and air-dried, after which a filter paper (90 mm in diameter) was fixed on the bottom face of the KP cup using double-sided tape. A different filter paper (90 mm in diameter) was cut along its diameter and the resulting semicircle-shaped paper was uniformly treated with 400 μL of each test sample or sample for correction, and then placed over the filter paper fixed on the aforementioned bottom face of the KP cup by allowing the circular parts to overlap, for use as a testing device.
The “repelling rate Y” and “corrected repelling rate Z” were calculated from the above “time A (sec)” and “time B (sec)” using the calculation formula below. For the “repelling rate of sample for correction” used to calculate the “corrected repelling rate Z,” the repelling rate of each of the samples for correction above (ethanol alone or water alone being a solvent for the active ingredient) was used.
Corrected repelling rate Z (%)={Repelling rate of test sample−Repelling rate of sample for correction}/{100−Repelling rate of sample for correction}×100
For the test samples, the test samples in “Test for Confirmation of Honeybee Repelling Effect 2” above were used.

honeybees = assay: Test for Confirmation of Honeybee Repelling Effect 1, 2, 3 (feeding station with 40% sugar water); format: in vivo; details: for Corrected repelling rate R (%): honeybees; for Corrected repelling rate (%) Honeybees: Test 3, 5 mL
Description: The following were used as the test samples for Examples: 2% by weight per volume ethanol solutions of octane (a-1), tetradecane (a-2), heptadecane (a-3), nonadecane (a-4), 2-acetylfuran (b-1), 5-methyl-2-furaldehyde (b-2), furfural (b-3), furaneol (c-1), 2-acetylpyrrole (d-1), 1-benzylpyrrole (d-2), 1-octanol (e-1), 1-dodecanol (e-2), and 1-octadecanol (e-3), respectively; and 2% by weight per volume aqueous solutions of furfuryl alcohol (b-4), sotolon (c-2), and α-angelicalactone (c-3), respectively.
The following were used as the test samples for Comparative Examples: 2% by weight per volume ethanol solutions of eicosane (carbon number 20, p-1), heneicosane (carbon number 21, p-2), 2-methyloctane (branched alkane, p-3), tributyl o-acetylcitrate (p-4), and 1-methylpyrrole (p-5), respectively; and 2% by weight per volume aqueous solutions of 2-methyltetrahydrofuran-3-one (p-6) and acetic acid (p-7), respectively.
Ethanol alone and water alone were used as samples for correction.
The cotton pads 13 were impregnated with 40% sugar water (80 g), after which disposable wooden chopsticks 15 (80 mm in length) were placed over the cotton pads on the lid surface as “landing areas,” for use as “test insect (honeybee) feeding station 1” 10.
A nest box of test insects (honeybees) (1 colony: approx. 6,000 bees) was placed at the center of a glass hothouse (bottom face: 5 m×10 m, height (highest part): 3 m, temperature: 25° C.), and the aforementioned “test insect (honeybee) feeding station 1” was installed at a location 2 meters away from the nest box.
After confirming that at least five test insects (honeybees) were feeding at the above “test insect (honeybee) feeding station 1” installed in the hothouse, test 1 was conducted to measure the “approaching count (Mz)” and “landing count (My)” and calculate the “landing rate (Mx).”
Next, the “test insect (honeybee) feeding station 1” installed in the hothouse was replaced with each “test insect (honeybee) feeding station 2” which was let to stand still for 5 minutes, after which test 2 was conducted to measure the “approaching count (Nz)” and “landing count (Ny)” and calculate the “landing rate (Nx).”
Approaching count: Total number of times a honeybee has approached within 25 cm of the cotton wools at the feeding station during 5 minutes
Landing count: Total number of honeybees that have remained for at least 1 second on the cotton pads at the feeding station during 5 minutes
Landing rate (%): (Landing count/Approaching count)×100
The “repelling rate Q” and “corrected repelling rate R” were calculated from the above “landing rates” using the calculation formula below. For the “repelling rate of sample for correction” used to calculate the “corrected repelling rate R,” the repelling rate of each of the samples for correction above (ethanol alone or water alone being a solvent for the active ingredient) was used.
Repelling rate Q (%)={(Mx)−(Nx)}/(Mx)×100
Corrected repelling rate R (%)={Repelling rate of test sample−Repelling rate of sample for correction}/{100−Repelling rate of sample for correction}×100
The following were used as the test samples for Examples: 0.1% by weight per volume ethanol solutions of 3-methyl-2-butanol (e-4), carvacrol (x-1), isoeugenol (x-2), cinnamyl alcohol (x-3), diacetone alcohol (x-4), α-amylcinnamaldehyde (x-5), 3-methyl-2-butenal (x-6), valeraldehyde (x-7), ethyl cinnamate (x-8), methyl cinnamate (x-9), ethyl isovalerate (x-10), isoamyl formate (x-11), 5-ethyl-2-methylpyridine (x-12), 2-(3-phenylpropyl)pyridine (x-13), 2,6-dimethylpyridine (x-14), ß-ionone (x-15), 2-acetylthiazole (x-16), butylamine (x-17), and citronella oil (x-18), respectively; and a 0.1% by weight per volume aqueous solution of (3-amino-3-carboxypropyl)dimethylsulfonium chloride (x-19).

[1] = Test 1, 2% by weight per volume solution, 400 μL on filter paper, 30 minutes
[2] = Test 1, 2% by weight per volume solution
[3] = Test 1, 2% by weight per volume solution, 5 mL sprayed (active ingredient 0.1 g)
[4] = Test 2, 0.1% by weight per volume solution, 400 μL
[5] = Test 2, 0.1% by weight per volume solution, 5 mL (active ingredient 5 mg)
[6] = Test 3, 0.1% by weight per volume solution, 400 μL
[7] = 0.1% by weight per volume solution
[8] = 2.0% by weight per volume solution

## CCCCCCCCCCCCCC [a-2, tetradecane]
Stink bugs; [1]
  Corrected repelling rate (%) Stinkbugs: <0%
honeybees; [2]
  repelling effect / repelled behaviors of honeybees (in words): excellent repelling effect
honeybees; [3]
  Corrected repelling rate R (%): 96.5%

## CC(C)CCOC=O [x-11, isoamyl formate]
Stink bugs; [4]
  Corrected repelling rate (%) Stinkbugs: <0%
honeybees; [5]
  Corrected repelling rate R (%): 15.1%

## CCC(=O)Oc1c(C)occc1=O [y-96, maltol propionate]
Stink bugs
  repelling of stink bugs and other injurious insects to be exterminated (in words): not repelling stink bugs
Stink bugs; [6]
  Corrected repelling rate (%) Stinkbugs: ∘
honeybees; [7]
  Corrected repelling rate (%) Honeybees: 57.5%

## Cc1cccc(C)n1 [x-14, 2,6-dimethylpyridine]
Stink bugs; [4]
  Corrected repelling rate (%) Stinkbugs: <0%
honeybees; [5]
  Corrected repelling rate R (%): 50.0%

## C=C(C)C1CC=C(C=O)CC1 (centres unmarked) [y-8, perillaldehyde]
Stink bugs; 0.5 h, 0.1 % strength
  Corrected repelling rate (%) Stinkbugs: x (“x” for rates “not <0”)
honeybees; [7]
  Corrected repelling rate (%) Honeybees: 94.7%

## CCOC(=O)c1ccc(O)cc1 [y-17, ethyl 4-hydroxybenzoate]
Stink bugs
  repelling of stink bugs and other injurious insects to be exterminated (in words): not repelling stink bugs
Stink bugs; [6]
  Corrected repelling rate (%) Stinkbugs: ∘
honeybees; [7]
  Corrected repelling rate (%) Honeybees: 56.6%

## CCCCC=O [x-7, valeraldehyde]
Stink bugs; [4]
  Corrected repelling rate (%) Stinkbugs: <0%
honeybees; [5]
  Corrected repelling rate R (%): 50.7%

## CCCCCCCCCCCC(=O)OCCCC [y-37, butyl laurate]
Stink bugs; [6]
  Corrected repelling rate (%) Stinkbugs: ∘
honeybees; [7]
  Corrected repelling rate (%) Honeybees: 33.0%

## Oc1cccc2nccnc12 [y-85, 5-hydroxyquinoxaline]
Stink bugs
  repelling of stink bugs and other injurious insects to be exterminated (in words): not repelling stink bugs
Stink bugs; [6]
  Corrected repelling rate (%) Stinkbugs: ∘
honeybees; [7]
  Corrected repelling rate (%) Honeybees: 71.5%

## C=CCCCCCCCCC(=O)OCC [y-39, ethyl 10-undecenoate]
Stink bugs
  repelling of stink bugs and other injurious insects to be exterminated (in words): not repelling stink bugs
Stink bugs; [6]
  Corrected repelling rate (%) Stinkbugs: ∘
honeybees; [7]
  Corrected repelling rate (%) Honeybees: 75.8%

## CC(C)CC=O [y-14, isovaleraldehyde]
Stink bugs
  repelling of stink bugs and other injurious insects to be exterminated (in words): not repelling stink bugs
Stink bugs; [6]
  Corrected repelling rate (%) Stinkbugs: ∘
honeybees; [7]
  Corrected repelling rate (%) Honeybees: 65.5%

## CCCC(=O)OCCC(C)C [y-51, isoamyl butyrate]
Stink bugs
  repelling of stink bugs and other injurious insects to be exterminated (in words): not repelling stink bugs
Stink bugs; Test 3, 2.0% by weight per volume solution, 400 μL
  Corrected repelling rate (%) Stinkbugs: ∘
honeybees; [8]
  Corrected repelling rate (%) Honeybees: 75.9%

## COc1ccc(C=O)cc1 [y-4, anisaldehyde]
Stink bugs; 0.5 h, 0.1 % strength
  Corrected repelling rate (%) Stinkbugs: x (“x” for rates “not <0”)
honeybees; [7]
  Corrected repelling rate (%) Honeybees: 91.5%

## CCCCCCCC1CCC(=O)O1 (centres unmarked) [y-63, γ-undecalactone]
Stink bugs
  repelling of stink bugs and other injurious insects to be exterminated (in words): not repelling stink bugs

## CC(C)=CC=O [x-6, 3-methyl-2-butenal]
Stink bugs; [4]
  Corrected repelling rate (%) Stinkbugs: <0%
honeybees; [5]
  Corrected repelling rate R (%): 91.8%

## CC1=C(O)C(=O)C(C)O1 (centres unmarked) [c-1, furaneol]
Stink bugs; [1]
  Corrected repelling rate (%) Stinkbugs: <0%
honeybees; [3]
  Corrected repelling rate R (%): 44.0%

## CCCCCCCC [a-1, octane]
Stink bugs; [1]
  Corrected repelling rate (%) Stinkbugs: <0%
honeybees; [2]
  repelling effect / repelled behaviors of honeybees (in words): excellent repelling effect
honeybees; [3]
  Corrected repelling rate R (%): 57.0%

## CC(=O)OCC=Cc1ccccc1 [y-18, cinnamyl acetate]
Stink bugs
  repelling of stink bugs and other injurious insects to be exterminated (in words): not repelling stink bugs
Stink bugs; [6]
  Corrected repelling rate (%) Stinkbugs: ∘
honeybees; [7]
  Corrected repelling rate (%) Honeybees: 69.0%

## COC(=O)C=Cc1ccccc1 [x-9, methyl cinnamate]
Stink bugs; [4]
  Corrected repelling rate (%) Stinkbugs: <0%
honeybees; [5]
  Corrected repelling rate R (%): 93.3%

## CC1=C(O)C(=O)OC1C (centres unmarked) [c-2, sotolon]
Stink bugs; [1]
  Corrected repelling rate (%) Stinkbugs: <0%
honeybees; [2]
  repelling effect / repelled behaviors of honeybees (in words): excellent repelling effect
honeybees; [3]
  Corrected repelling rate R (%): 79.7%

## c1ccc2ncccc2c1 [y-81, quinoline]
Stink bugs
  repelling of stink bugs and other injurious insects to be exterminated (in words): not repelling stink bugs
Stink bugs; [6]
  Corrected repelling rate (%) Stinkbugs: ∘
honeybees; [7]
  Corrected repelling rate (%) Honeybees: 80.2%

## OCC=Cc1ccccc1 [x-3, cinnamyl alcohol]
Stink bugs; [4]
  Corrected repelling rate (%) Stinkbugs: <0%
honeybees; [5]
  Corrected repelling rate R (%): 98.2%

## CCOC(=O)C=Cc1ccccc1 [x-8, ethyl cinnamate]
Stink bugs; [4]
  Corrected repelling rate (%) Stinkbugs: <0%
honeybees; [5]
  Corrected repelling rate R (%): 21.8%

## CCCCCCC(=O)OCC [y-54, ethyl heptanoate]
Stink bugs; [6]
  Corrected repelling rate (%) Stinkbugs: ∘
honeybees; [7]
  Corrected repelling rate (%) Honeybees: 20.9%

## C1CCNC1 [y-91, pyrrolidine]
Stink bugs; 0.5 h, 0.1 % strength
  Corrected repelling rate (%) Stinkbugs: x (“x” for rates “not <0”)
honeybees; [7]
  Corrected repelling rate (%) Honeybees: 61.2%

## c1ccc2cnccc2c1 [y-79, isoquinoline]
Stink bugs
  repelling of stink bugs and other injurious insects to be exterminated (in words): not repelling stink bugs
Stink bugs; [6]
  Corrected repelling rate (%) Stinkbugs: ∘
honeybees; [7]
  Corrected repelling rate (%) Honeybees: 92.3%

## Cc1cccc2ccccc12 [y-87, 1-methylnaphthalene]
Stink bugs
  repelling of stink bugs and other injurious insects to be exterminated (in words): not repelling stink bugs
Stink bugs; [6]
  Corrected repelling rate (%) Stinkbugs: ∘
honeybees; Test 3, summary in text
  honeybee repelling rate: ≥ 50%
honeybees; [7]
  Corrected repelling rate (%) Honeybees: 74.3%

## CCOc1cc(C=O)ccc1O [y-6, ethyl vanillin]
Stink bugs; 0.5 h, 0.1 % strength
  Corrected repelling rate (%) Stinkbugs: x (“x” for rates “not <0”)
honeybees; [7]
  Corrected repelling rate (%) Honeybees: 60.3%

## C=CCOC(=O)CCCCC [y-49, allyl hexanoate]
Stink bugs; [6]
  Corrected repelling rate (%) Stinkbugs: ∘
honeybees; [7]
  Corrected repelling rate (%) Honeybees: 33.5%

## C=CCOC(=O)CCC1CCCCC1 [y-43, allyl cyclohexanepropionate]
Stink bugs
  repelling of stink bugs and other injurious insects to be exterminated (in words): not repelling stink bugs
Stink bugs; [6]
  Corrected repelling rate (%) Stinkbugs: ∘
honeybees; [7]
  Corrected repelling rate (%) Honeybees: 90.4%

## c1coc(Cn2cccc2)c1 [d-3, 1-furfurylpyrrole]
Stink bugs; [6]
  Corrected repelling rate (%) Stinkbugs: ∘
honeybees; [7]
  Corrected repelling rate (%) Honeybees: 25.4%

## CC1=CCC(=O)O1 [c-3, α-angelicalactone]
Stink bugs; [1]
  Corrected repelling rate (%) Stinkbugs: <0%
honeybees; [2]
  repelling effect / repelled behaviors of honeybees (in words): excellent repelling effect
honeybees; [3]
  Corrected repelling rate R (%): 31.7%

## CC(=O)/C=C/C1=C(C)CCCC1(C)C [x-15, ß-ionone]
Stink bugs; [4]
  Corrected repelling rate (%) Stinkbugs: <0%
honeybees; [5]
  Corrected repelling rate R (%): 83.7%

## CC(CC=O)CCCC(C)(C)O (centres unmarked) [y-9, hydroxycitronellal]
honeybees; [8]
  Corrected repelling rate (%) Honeybees: 92.8%

## CN1CCCC1 [y-92, 1-methylpyrrolidine]
honeybees; [7]
  Corrected repelling rate (%) Honeybees: 25.9%

## CCCCOC(=O)CC(CC(=O)OCCCC)(OC(C)=O)C(=O)OCCCC [p-4, tributyl o-acetylcitrate, reference compound]
honeybees; [3]
  Corrected repelling rate R (%): <0%

## Sc1ccc2ccccc2c1 [y-88, 2-naphthalenethiol]
honeybees; [7]
  Corrected repelling rate (%) Honeybees: 74.6%

## CC(=O)OCc1ccccc1 [y-19, benzyl acetate]
honeybees; [7]
  Corrected repelling rate (%) Honeybees: 83.2%
